These results are taken from patent US5208364A, “Antibiotic 5-lipoxygenase inhibitors” (Bristol-Myers Squibb Co., priority 1992, dated 1993).

Structures are written as SMILES.

The target in one data set is T1, rat 5-LPO (Rattus norvegicus, UniProt P12527).
T1 construct: produced in a cell-free extract of rat basophilic leukemia cells; endogenous in cells; host or cells: RBL-1 rat basophilic leukemia cells (ATCC CRL 1378), cell-free extract
T1 sequence (P12527 1-673): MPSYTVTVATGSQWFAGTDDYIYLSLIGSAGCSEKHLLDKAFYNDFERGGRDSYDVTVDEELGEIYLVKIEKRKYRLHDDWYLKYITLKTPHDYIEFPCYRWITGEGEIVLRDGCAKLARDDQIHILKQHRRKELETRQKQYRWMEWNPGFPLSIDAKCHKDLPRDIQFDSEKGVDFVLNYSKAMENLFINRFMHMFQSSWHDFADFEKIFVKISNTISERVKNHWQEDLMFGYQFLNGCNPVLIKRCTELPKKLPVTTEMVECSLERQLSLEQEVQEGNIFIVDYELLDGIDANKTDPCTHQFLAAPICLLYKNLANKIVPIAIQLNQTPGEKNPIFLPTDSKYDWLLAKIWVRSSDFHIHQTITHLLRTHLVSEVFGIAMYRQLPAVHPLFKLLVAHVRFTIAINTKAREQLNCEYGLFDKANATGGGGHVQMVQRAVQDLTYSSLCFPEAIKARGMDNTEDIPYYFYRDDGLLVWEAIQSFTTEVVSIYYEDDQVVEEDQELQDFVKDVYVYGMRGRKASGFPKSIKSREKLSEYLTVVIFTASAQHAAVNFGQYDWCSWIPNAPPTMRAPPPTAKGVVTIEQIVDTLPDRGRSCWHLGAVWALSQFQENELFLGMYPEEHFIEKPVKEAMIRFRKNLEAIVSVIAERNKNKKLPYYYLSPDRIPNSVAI
Kind of data set: 5-LPO inhibitory activity (5-HETE produced in cell-free extract of rat basophilic leukemia RBL-1 cells, HPLC). Type of data set: biochemical. The conditions noted are these: arachidonic acid substrate, 37° C., 5 minutes. The protocol:
The assay method employed in this manuscript is a slight modification of that published by Hook, Yacobuci, O'Connor, Lee, Kerns, Krishnan, Matson and Hesler in "Identification of the inhibitory activity of carbazomycins B and C against 5-lipoxygenase: a new activity for these compounds", J. Antibiot. (1990) 43, 1347. Rat basophilic leukemia cells […]. They were harvested by centrifugation and washed twice with […] containing I mM EDTA. The cells were resuspended in the same buffer and sonicated. The suspension was centrifuged at 13,000×g to remove cell debris and the supernatant stored at -80° C.
Enzyme assays were conducted by diluting the cell-free extract to the desired specific enzyme activity with phosphate buffer saline (PBS) containing 28.5 mM phosphate, 1 mM ethylenediamine tetraacetic acid (EDTA), 0.9 mM adenosine triphosphate (ATP) and 0.9 mM glutathione. The cell-free extract solution (110 μ1) was preincubated at 37° C. for 2.5 minutes, followed by the addition of the test sample in 20 μl of DMSO-PBS (1:9, v/v). The reaction was started by the addition of 5 μl of substrate (2 mM arachidonic acid plus 25 mM CaC12 in ethanol-water, 3:1). After incubation for 5 minutes, the reaction was terminated by the addition of 135 μl of ethanol and the solution centrifuged to remove precipitated protein. The 5-hydroxyeicosatetraenoic acid (5-HETE) in the supernatant was analyzed by HPLC as described below.
The inhibitory effect of a fermentation broth extract or a purified preparation was determined by measuring the amount of 5-hydroxyeicosatetraenoic acid (5-HETE) produced in a cell-free extract of rat basophilic leukemia cells (RBL-I cells, ATCC CRL 1378) in the presence of a test sample, arachidonic acid, adenosine triphosphate, CaC12 and glutathione. […] The concentration of 5-HETE was spectrophotometrically measured at 230 nm with a Gilson 115 UV detector and a Hewlett Packard 3396 A integrator.

A short description of data set [1]: Solubility (physico-chemical properties). Type of data set: physicochemical.

`CC(C)CCCCCCCCOC(=O)c1cc(O)ccc1N` [IB, Isoundecyl 5-hydroxyanthranilate] displayed an IC50 against rat 5-LPO of 4.9 µM. Also, in data set [1], the “solubility in methanol, ethanol, ethyl acetate, chloroform and dimethyl sulfoxide” value is “soluble”; the solubility in n-hexane result was “slightly soluble”; the solubility in water entry is listed as “insoluble”.
For the molecule `CC(C)CCCCCCCCCOC(=O)c1cc(O)ccc1N` [Compound IC, Isolauryl 5-hydroxyanthranilate], the IC50 against rat 5-LPO is 6.3 µM. Also, in data set [1], the “solubility in methanol, ethanol, ethyl acetate, chloroform and dimethyl sulfoxide” value is on record as “soluble”; the solubility in n-hexane result is listed as “slightly soluble”; the solubility in water entry is reported as “insoluble”.
For `CC(C)CCCCCCCOC(=O)c1cc(O)ccc1N` [IA, Isodecyl 5-hydroxyanthranilate] the same measures were 3.4 µM, “soluble”, “slightly soluble” and “insoluble”.

What is called IC50 is the concentration that inhibits the measured activity by half. A high value points to a need for much substance.
